Results on 5 compounds are retold here after paper PMC2764525 (Biochemistry, 2009).

The structures appear in SMILES notation. “And” between values parts separate entries of the source, which are not always exact repeats. Equal entries are not always repeated. Where two headings read alike, the source gives them in different places.

The target in data set [1] is T1, nikD Asp276Asn (Streptomyces tendae, UniProt Q9X9P9, D276N). Description: biochemical. Format: binding.
Data set [2] addresses T2, nikD Glu101Gln (Streptomyces tendae, UniProt Q9X9P9, E101Q). Put plainly: biochemical. The data set is classed as binding.
The target in data set [3] is wild-type nikD. The settings on record: spectral titration, 100 mM potassium phosphate buffer, pH 8.0, 25 °C; cited from earlier work.
For data set [4] the following is noted: ionization at the N(3)H position in free FAD; cited from earlier work.
Data set [5] concerns the target T1, nikD Asp276Asn. Put plainly: Anaerobic reductive half-reaction with P2C. The data set is classed as biochemical.
In data set [6] the target is T2, nikD Glu101Gln. Description: Anaerobic reductive half-reaction with P2C. The data set is classed as biochemical.
The target of data set [7] is T1, nikD Asp276Asn. Description: Steady-state turnover with P2C and oxygen. The data set is classed as biochemical.
In data set [8] the target is T2, nikD Glu101Gln. Put plainly: Steady-state turnover with P2C and oxygen. Format: biochemical.
The test system of data set [9] is wild-type nikD. The settings on record: pH 8.0, 25 °C, cited from earlier work.
Data set [10] concerns wild-type nikD. The settings on record: saturating P2C and oxygen, pH 8.0, 25 °C; cited from earlier work.
Data set [11] concerns the target T2, nikD Glu101Gln. The settings on record: pH 8.
Data set [12] deals with wild-type nikD. As to conditions: cited from earlier work.
Data set [13] has as its target T2, nikD Glu101Gln. Description: biochemical.
[14] abbreviates: apparent second-order rate constant from stopped-flow data, pH 8.0, 25 °C.
Where [15] appears, read: limiting rate of fast phase at saturating P2C, pH 8.0, 25 °C.
[16] abbreviates: very fast phase preceding fast phase, pH 8.0, 25 °C.
The mark [17] stands for this setting: saturating concentrations of P2C and oxygen.
[18] abbreviates: one-step binding, pH 8.0, 25 °C.

With `O=C(O)C1=CCCCC1` [1-cyclohexenoate], the figures for the Kd at nikD Asp276Asn [1], on nikD Glu101Gln [2] and at wild-type nikD [3] were 6.5 ± 0.9 µM, 0.9 ± 0.1 µM and 12.8 ± 0.9 µM, respectively.
For `Cc1cc2nc3c(=O)[nH]c(=O)nc-3n(C[C@H](O)[C@H](O)[C@H](O)COP(=O)(O)OP(=O)(O)OC[C@H]3O[C@@H](n4cnc5c(N)ncnc54)[C@H](O)[C@@H]3O)c2cc1C` [FAD, flavin adenine dinucleotide], the pKa in data set [4] is on record as 10.4.
For the compound `O=C(O)C1=NCCCC1` [P2C, piperideine-2-carboxylate], the Kd is 110 ± 10 µM on nikD Asp276Asn [5]; 1.4 ± 0.2 mM on nikD Glu101Gln [6]; 260 ± 20 µM on wild-type nikD [9] (read-out: Kd app, hyperbolic fit of fast phase). Further, the klim/Kd app is 1.01 ± 0.01 × 10^5 M^-1 s^-1 and 1.01 ± 0.09 × 10^5 M^-1 s^-1 at nikD Asp276Asn [5] (setting [14]); 9 ± 1 × 10^3 M^-1 s^-1 on nikD Glu101Gln [6] (setting [14]); 2.0 ± 0.2 × 10^5 M^-1 s^-1 in the data set with wild-type nikD [9]. Besides, the klim at nikD Asp276Asn [5] (setting [15]) was 11.1 ± 0.2 s⁻¹; at nikD Glu101Gln [6] (setting [15]), 13.9 ± 0.9 s⁻¹; in the data set with wild-type nikD [9] (limiting rate of fast phase at saturating P2C) it was 53 ± 1 s⁻¹. In addition, the “klim, fold faster than observed turnover rate (kcat)” value on nikD Asp276Asn [5] (saturating P2C) was “about 10 fold”; on nikD Glu101Gln [6] (saturating P2C), “about 30 fold”. Further, the “klim, fold slower than limiting rate with wild-type nikD” value on nikD Asp276Asn [5] (saturating P2C) is reported as “about 5 fold”; at nikD Glu101Gln [6] (saturating P2C), “about 4 fold”. Further, the kslow on nikD Asp276Asn [5] (slow phase, independent of P2C concentration, pH 8.0, 25 °C) was 3.0 ± 0.3 s⁻¹; with wild-type nikD [9] (slow phase, independent of P2C concentration), 2.7 ± 0.1 s⁻¹. Besides, the “kvery fast, Y-intercept of linear dependence on P2C concentration” value on nikD Glu101Gln [6] (setting [16]) amounted to 10.1 ± 0.9 s⁻¹. At nikD Glu101Gln [6] (setting [16]), the “kvery fast, slope of linear dependence on P2C concentration” value is recorded as 8.8 ± 0.2 × 10^3 M^-1 s^-1. The affinity at nikD Asp276Asn [7] corresponds to a Ki of 8 µM. Further, the catalytic constant (kcat) at nikD Asp276Asn [7] (saturating P2C and oxygen, sequential mechanism fit, pH 8.0, 25 °C) was 1.22 ± 0.04 s⁻¹; on nikD Glu101Gln [8] (saturating P2C and oxygen, ping-pong mechanism fit, pH 8.0, 25 °C), 0.50 ± 0.01 s⁻¹; with wild-type nikD [10], 2.3 ± 0.2 s⁻¹. For the same compound, the results for the “turnover rate, fold slower than wild-type nikD” value on nikD Asp276Asn [7] (setting [17]) and on nikD Glu101Gln [8] (setting [17]) were “about 2 fold” and “about 5 fold”, respectively.
Turning to `C[Se]CC(=O)O` [methylselenoacetate], the Kd at nikD Asp276Asn [1] is 1000 ± 30 µM; at nikD Glu101Gln [2], 112 ± 3 µM; on wild-type nikD [3] it was 1070 ± 40 µM.
With `O=C(O)c1ccccn1` [picolinate], the Kd was 420 ± 20 µM on nikD Asp276Asn [1]; 151 ± 2 µM at nikD Glu101Gln [2]; 290 ± 40 µM at wild-type nikD [3]; 280 ± 30 µM on wild-type nikD [12] (read-out: Kd macroscopic (calc), calculated, equals k2/k1, pH 8.0, 25 °C); 180 ± 30 µM at nikD Glu101Gln [13]. The k3 on nikD Glu101Gln [11] is 192 ± 9 s⁻¹. The same compound showed a k4 at nikD Glu101Gln [11] of 27 ± 1 s⁻¹. Moreover, in the data set on wild-type nikD [12] (setting [18]), the k1 is on record as 2.83 ± 0.04 × 10^4 M^-1 s^-1. The k2 with wild-type nikD [12] (setting [18]) was 8.0 ± 0.7 s⁻¹.
